Measurements reported in the OPERA property sets (Mansouri et al. 2018).
Where a SMILES comes first, the peptide text is derived from it.

Structure (SMILES)	logP
CCOc1cc2ncnc(Nc3cccc(I)c3)c2cc1OCC	4.62
C=C(C)C(=O)OCCCCCCCC(C)C	5.28
CCC(=O)Nc1ccc(OCC(O)CNC(C)C)cc1 (centres undefined)	1.02
COCOc1ccc(Cc2cccc(-c3c(O)c4ccc(Cl)cc4[nH]c3=O)c2)cc1	5.24
CC(C)CC(NC(=O)C(Cc1c[nH]c2ccccc12)NC(=O)C(N)Cc1c[nH]c2ccccc12)C(=O)O (stereo not drawn) (H-Trp-Trp-Leu-OH; configuration not given here)	0.36
CCCCCCCNCc1ccc(C)cc1	5.12
CCNC(=S)SC	1.57
CCOCCOCCOc1ccc(NC(=O)NC23CC4CC(CC(C4)C2)C3)cc1	3.9
COc1ccc(C2Cc3ccccc3N(CCN(C)C)C(=O)C2C)cc1 (centres undefined)	4.5
CC(=O)c1ccc(Cl)cc1O	2.97
CCCC(=NOCC)C1=C(O)CC(C)(C2CC2)OC1=O (centres undefined)	3.28
CC(=O)NC(CCCN(Cc1ccccc1)C(=O)N(C)N=O)C(=O)NCc1ccccc1 (centres undefined)	2
Cc1cc2c(cc(C)c3ccc(=O)oc32)o1	2.92
COC(=O)c1ccc(C(=O)OC)c(N)c1	2.28
COCC(O)Cn1c(Br)cnc1[N+](=O)[O-] (centres undefined)	0.16
N#CN=C1NCCN1Cc1cnccc1Cl	0.77
Nc1ccc2cc3ccccc3nc2c1CO	1.77
COc1ccc(CCNCC(O)COc2ccc(-c3nc(Br)c[nH]3)cc2Cl)cc1OC (centres undefined)	4.3
O=c1cc(-c2ccccc2)on1-c1ccc(Cl)cc1	4.1
c1ccc(N2CCN(CCn3nc4ccccc4n3)CC2)cc1	3.34
CON=C(C(=O)NC1C(=O)N2C(C(C)OC(C)=O)=CCSC12)c1csc(N)n1 (centres undefined)	0.46
CC(=O)OC(C)(C)C1CCC2(C)CCCC(C)(O)C2C1 (centres undefined)	3.8
O=C(NC1CCCCC1)NS(=O)(=O)c1cnccc1NC1CCCCCC1	4.59
CC(C)CC(NC(=O)C(NC(=O)C(N)C(C)O)C(C)C)C(=O)O (stereo not drawn) (H-Thr-Val-Leu-OH; configuration not given here)	-1.97
CC1CC(N)CN1c1nc2c(cc1F)c(=O)c(C(=O)O)cn2-c1ccc(F)cc1F (centres undefined)	-0.2
CC(C)(Cc1c[nH]c2ccccc12)NCC(O)CON=C(C1CC1)C1CC1 (centres undefined)	3.29

Structure (SMILES)	logP
O=C(O)c1cc(O)c2ccc(Cl)cc2n1	1.05
NCCCOC1Cc2c(O)cc(O)cc2OC1c1ccc(O)c(O)c1 (centres undefined)	0.52
COC(=O)C1=C(C)NC(C)=C(C(=O)OCc2cccnc2)C1c1cccc2c1OCO2 (centres undefined)	3.61
O=C(O)C1CSC(c2ccc(O)cc2O)=N1 (centres undefined)	1.1
CC(=O)c1ccc(Br)cc1O	3.15
CC(C)CC(N)C(=O)NC(CC(C)C)C(=O)NC(C(=O)NC(Cc1ccccc1)C(=O)O)C(C)C (centres undefined) (H-LLVF-OH; configuration not given here)	-0.25
OC(CNCC1COc2ccccc2O1)CON=C(C1CC1)C1CC1 (centres undefined)	2.22
CCOc1ccc(CNc2[nH]cnc3ncnc2-3)cc1	2.6
C=CC(=O)OCCCOC(=O)C=C	0.87
CCCCOCCCNc1ncnc2c1ncn2C1OC(CO)C(O)C1O (centres undefined)	1.3
CCCCCOc1cccc(NC(=O)OCCN2CCCCC2)c1	5.5
CCc1ccc(OCC2CN=C(N)O2)cc1 (centres undefined)	2.27
CCOC(=O)C(C)c1ccc2cc(OC)ccc2c1 (centres undefined)	3.51
Cc1cc(=O)n(C)c2c1cc(C)c1occ(C)c12	3.3
CC(C)(O)C1CCC2(C)CCCC(O)(CO)C2C1 (centres undefined)	1.54
CC(=O)Oc1cc(OC(C)CCCc2ccccc2)cc2c1C1CC(O)CCC1C(C)N2 (centres undefined)	5.7
CCCCOC1C(=O)NC(=O)NC1=[N+]=[N-] (centres undefined)	-0.55
CC1(C)Oc2ccc(C#N)cc2C(N2CCCC2=O)C1O (centres undefined)	2.32
CCC(C)Nc1nc(N)nc(Cl)n1 (centres undefined)	1.86
Cc1cc(C)cc(Cc2c[nH]cn2)c1	2.52
NC(=O)C(N)Cc1c[nH]c2ccccc12 (centres undefined)	0.3
NC(=O)c1cccc(Cn2ccnc2)c1	-0.01
Brc1ccc2ccc3c(Br)ccc4ccc1c2c43	6.69
C=C(C)C(=O)OCCCCCCCCCCCC	6.57
C[C@]12CCC(=O)C=C1[C@@H]1C[C@@H]1[C@@H]1[C@@H]2CC[C@@]2(C)[C@H]1CC[C@@]21CCC(=O)O1	3.08
Cc1nc2c3c(c(C(=O)N4CCCC4)cn2c1C)CCC(c1ccccc1)O3 (centres undefined)	3.6

Structure (SMILES)	logP
CCc1cccc(COC(=O)C2C(C=C(C)C)C2(C)C)c1 (centres undefined)	6.51
Nc1nnnn1-c1cccc(Cl)c1	1.44
CCCCC(O)C(CCCCOc1ccc(F)cc1)n1cncn1 (centres undefined)	3.38
O=C(O)CCCCON=C(c1cccc(C(F)(F)F)c1)c1ccncn1	3.14
CC(=NNC(=O)c1ccc([N+](=O)[O-])cc1)c1cnccn1	2.1
CCCSCc1cc(=O)c(O)co1	1.32
CCCCC(O)C(CCCCOc1cccc(C)c1)n1cncn1 (centres undefined)	3.6
C=C1CC2c3c(O)cc(CCCCC)cc3OC(C)(C)C2CC1O (centres undefined)	5.24
COc1cccc(C=[N+]([O-])C(C)(C)C)c1	1.4
Nc1nc(N)c2c(F)cccc2n1	1.19
c1nc2nc[nH]c(N3CCC3)c-2n1	0.87
CC1(C(=O)O)CSC(c2ccc(O)cc2O)=N1 (centres undefined)	1.3
Cc1ccc([N+](=O)[O-])c(C(=O)O)c1	1.63
CC(C)(C)OC(=O)NC(Cc1c[nH]c2ccccc12)C(=O)O (centres undefined)	2.65
CC(=O)c1ccc([N+](=O)[O-])cc1O	2.05
COc1ccc(C=C2C(=O)NC(=S)NC2=O)cc1	0.76
NC1=NCC(COc2ccccc2[N+](=O)[O-])O1 (centres undefined)	0.8
CCN(CC)CC(=O)NCC(=O)Nc1c(C)cccc1C	2.2
COC(=O)C=CCn1cc([N+](=O)[O-])nc1C	0.16
CC(=O)c1cc2cccc3ccc4cccc1c4c32	4.16
CC(C)C(=O)OCC(=O)C1(O)C(C)CC2C3CCC4=CC(=O)C=CC4(C)C3(F)C(O)CC21C (centres undefined)	3.4
NS(=O)(=O)c1ncncc1-c1ccccc1	0.5
CCOc1cccc2nc(N)nc(N)c12	1.69
CN(C)C(C)(C)CO	0.29
COc1cccc2nc(N)nc(N)c12	1.18
Cc1ccccc1Cc1c[nH]cn1	2.31

Structure (SMILES)	logP
CC(C)CC(N)C(=O)NC(CC(C)C)C(=O)NC(CC(C)C)C(=O)N1CCCC1C(=O)O (centres undefined) (H-LLLP-OH; configuration not given here)	-1.18
CSCCC(NC(=O)C(N)CC(C)C)C(=O)O (stereo not drawn) (H-Leu-Met-OH; configuration not given here)	-1.87
NC(=O)C(CCN1CC2CCC(CC2)C1)(c1ccccc1)c1ccccn1 (centres undefined)	2.72
CC(C)CC(NC(=O)C(CC(C)C)NC(=O)C(N)CO)C(=O)O (stereo not drawn) (H-Ser-Leu-Leu-OH; configuration not given here)	-2.03
CCCCCOCCCNc1ncnc2c1ncn2C1OC(CO)C(O)C1O (centres undefined)	1.82
CC(C)(C)c1ccc(C(O)CCCN2CCC(C(O)c3ccccc3)CC2)cc1 (centres undefined)	4.06
C#CCCCCl	1.85
COc1ccc(C(C)=O)c(O)c1	1.98
O=C(Cn1ncc([N+](=O)[O-])n1)NCCO	-0.82
CN(C/C=C/C#CC(C)(C)C)Cc1cccc2ccccc12	6
c1ccc(CCNc2ncnc3nc[nH]c23)cc1	2.42
CCCCCCCCCCCCN=C=S	7.13
Nc1nnnn1-c1ccc([N+](=O)[O-])cc1	0.77
Cc1oc2c(C)cc3ccc(=O)oc3c2c1C	3.34
CCCCC(C)CC(O)C=CC1C(O)CC2CC(CCOCC(=O)OC)CC21 (centres undefined)	4.5
CC(C)(C)[N+]([O-])=Cc1ccccc1O	1.3
CC(C)(C)NCC(O)CON=C(C1CC1)C1CC1 (centres undefined)	1.84
Clc1cc2c(oc3c(Cl)c(Cl)ccc32)c(Cl)c1Cl	6.47
O=c1cc(-c2ccccc2)[nH]n1-c1ccc(Cl)cc1	2.6
C=CCON=C(C)c1cccc(Oc2nc(OC)cc(OC)n2)c1C(=O)OC	3.13
CCCCCCCOc1ccccc1NC(=O)OC(C)CN(CC)CC (centres undefined)	5.7
COc1ccccc1NC(=O)OCCN1CCCCC1	3.11
COc1ccc2c(C)cc(=O)oc2c1	1.89
Cc1cccc(OCC2CN=C(N)O2)c1C (centres undefined)	2.25
Clc1cc2c(cc1Cl)Oc1c(Cl)c(Cl)cc(Cl)c1O2	6.2
O=C1CCC(=O)N1c1ccc(Cl)c(Cl)c1	1.35

Structure (SMILES)	logP
CCC(C)C(N)C(=O)NC(CO)C(=O)NC(C(=O)O)C(C)CC (stereo not drawn) (H-Ile-Ser-Ile-OH; configuration not given here)	-2.64
CCN(CC)C(=O)c1cn2c(C)c(C)nc2c2c1CCC(c1ccccc1)O2 (centres undefined)	4
CCOC(=O)C1=C(C)NC(C)=C(C(=O)OC)C1c1cc(OC)cc(OC)c1 (centres undefined)	4.08
O=c1ccc2cc3ccoc3cc2s1	2.61
Cc1cc2c(o1)c(C)c(C)c1ccc(=O)oc12	3.26
CCN(CC)CC(=O)Nc1ccc(N)cc1	1.09
Cn1nc(C(F)(F)F)n(-c2ccccc2)c1=S	2.58
Cc1cc2c(ccc3c(C)c(C)c(=O)n(C)c32)o1	3.54
COC(=O)c1c(N2CCOCC2)c(-c2ccc(Cl)cc2)cn1C(C)=O	3.5
Cc1cccc(C=[N+]([O-])C(C)(C)C)c1	1.6
CCCN(CC)CC(=O)Nc1c(C)cccc1C	2.74
CCCCNC(=O)Cn1cccc(O)c1=O	0.33
Brc1cc(Br)c2ccc3cccc4ccc1c2c43	6.85
O=C1N=C(N2CCOCC2)CN1Cc1ccccc1	0.5
FC(F)(F)c1ccc(CNc2[nH]cnc3ncnc2-3)cc1	3.19
C=Cn1c([N+](=O)[O-])cnc1C=Cc1ccc(C(=O)O)cc1	2.68
NS(=O)(=O)c1ccncn1	-0.2
COc1ccc(C2Cc3c(cccc3[N+](=O)[O-])N(CCN(C)C)C(=O)C2OC(C)=O)cc1 (centres undefined)	3.7
N#CC(C#N)=NNc1cccc(Cl)c1Cl	3.85
NC(=O)c1cccc(Cn2cnc3ccccc32)c1	1.7
CCCc1nc(N)nc(N2CCCCC2)n1	2.55
Cc1ccc2c(c1)OCN(CCO[N+](=O)[O-])C2=O	2.44
CC(C)C(NC(=O)C(N)Cc1ccc(O)cc1)C(=O)NC(Cc1ccccc1)C(=O)O (centres undefined)	-1.37
NC(=O)Cc1c[nH]c2ccccc12	0.75
CCCOc1ccccc1CNc1[nH]cnc2ncnc1-2	3.27
